System: anesthetized dogs
Experiment: Myocardial oxygen consumption, coronary flow, cardiac output in anesthetized dogs, iv
Assay type: in vivo
Conditions: c3-c8 5,15,30,60,90,120 min after administration; for cardiac output, x ± s / myocardial oxygen uptake, x ± s / coronary artery resistance, x ± s / myocardial oxygen consumption, x ± s / total peripheral resistance (TPR), x ± s: c2 0 min before
Protocol: Isosorbide Dinitrate control group were medicated by continuous intravenous infusion and other groups by intravenous injection.
The animals were anesthetised with 3% pentobarbital sodium iv at the dose of 30 mg/kg. Tracheal intubation was performed and SC-M5 anesthesia respirator (manufactured by Shanghai Medical Instrument Factory, frequency: 16˜18 per min, tidal volume: 350˜550 ml) was connected. Bilateral femoral arteries were separated for blood sampling and analyzing and measurement of mean blood pressure. Thoracotomy at the fourth intercostal space was performed to expose the heart and to open the pericardium to make pericardial hammock. Ascending aortic root and upper part of left branch of anterior descending coronary artery were dissociated to put respectively probes of electromagnetic flowmeter (MFV-1100/1200, made by Japanese Nihon Kohden Company) to measure cardiac output and coronary artery flow rate. Right jugular vein was separated for insertion of a cardiac catheter that was guided into coronary venous sinuses before fixation. Synchronously, blood was sampled by drawing from coronary sinus and femoral artery (0.5% heparin was added for anticoagulation). pO2 and pH were detected with a blood gas analyzer (DH-1830 Blood Gas Acid-base Analyze, Nanjing Ananalysis Apparatus Factor) and the values were converted to artery and venous oxygen content. After intravenous infusion of control solvent or the drug, constant infusion for all groups was completed with an electronic constant flow pump (SH-88AB Controllable Intravenous Injector made by Quanzhou Lizhong Electronic Medical Instrument Factory). Both artery and venous blood gas before administration or 5, 15, 30, 60, 90 and 120 min after administration was analyzed and mean blood pressure and cardiac output at 0, 5, 15, 30, 60, 90 and 120 min were observed.
Myocardial oxygen consumption(ml/min/100 g)=coronary flow ml/min/100 g×artery oxygen−coronary sinus oxygen ml %).
Myocardial oxygen uptake (%)=(artery oxygen ml %−coronary sinus oxygen ml %)/artery oxygen ml %
Total peripheral resistance of general circulation(dyn·s·cm−5)=mean arterial blood pressure[MAP(KPa)]×80/cardiac output[CO(L/min)]=mean arterial blood pressure[MAP(mmHg)]×10.6/cardiac output[CO(L/min)]
Coronary resistance[Kpa/ml/min]=mean arterial blood pressure[MAP(KPa)]/coronary artery flow.

[1] = TSG 5 mg/kg iv, before administration, 0 min
[2] = TSG 5 mg/kg iv, 5 min after administration
[3] = TSG 5 mg/kg iv, 15 min after administration
[4] = TSG 5 mg/kg iv, 30 min after administration
[5] = TSG 5 mg/kg iv, 60 min after administration
[6] = TSG 5 mg/kg iv, 90 min after administration
[7] = TSG 5 mg/kg iv, 120 min after administration
[8] = TSG 10 mg/kg iv, 0 min, before administration
[9] = TSG 10 mg/kg iv, 5 min after administration
[10] = TSG 10 mg/kg iv, 15 min after administration
[11] = TSG 10 mg/kg iv, 30 min after administration
[12] = TSG 10 mg/kg iv, 60 min after administration
[13] = TSG 10 mg/kg iv, 90 min after administration
[14] = TSG 10 mg/kg iv, 120 min after administration
[15] = TSG 10 mg/kg iv, before administration, 0 min

3,4′,5-trihydroxy-stilbene-3-β-D-glucoside [TSG]
cardiac output, x ± s [1]: 1.09 ± 0.14 L/min
myocardial oxygen uptake, x ± s [1]: 79.5 ± 6.93%
cardiac output, variation % [2]: 3.58 ± 2.00%
coronary artery resistance, variation % [2]: 3.03%
myocardial oxygen consumption, variation % [2]: −0.52 ± 1.59%
myocardial oxygen uptake, variation % [2]: 0.15%
total peripheral resistance (TPR), variation % [2]: −0.82 ± 2.72%
cardiac output, variation % [3]: 3.47 ± 0.97%
coronary artery resistance, variation % [3]: 2.18 ± 2.46%
total peripheral resistance (TPR), variation % [3]: 1.31 ± 2.04%
cardiac output, variation % [4]: 5.25 ± 2.62%
coronary artery resistance, variation % [4]: 0.02 ± 3.86%
myocardial oxygen consumption, variation % [4]: −0.59 ± 2.68%
myocardial oxygen uptake, variation % [4]: −5.76 ± 5.34 %
total peripheral resistance (TPR), variation % [4]: 0.90 ± 1.20%
cardiac output, variation % [5]: 6.05 ± 2.06 %
coronary artery resistance, variation % [5]: −3.62 ± 3.63%
myocardial oxygen consumption, variation % [5]: 0.68 ± 1.74%
myocardial oxygen uptake, variation % [5]: −6.24 ± 4.39 %
total peripheral resistance (TPR), variation % [5]: 0.20 ± 1.19%
cardiac output, variation % [6]: 5.98 ± 2.02 %
coronary artery resistance, variation % [6]: −4.03 ± 2.13%
myocardial oxygen consumption, variation % [6]: −0.91 ± 2.81%
myocardial oxygen uptake, variation % [6]: −5.51 ± 4.5 %
total peripheral resistance (TPR), variation % [6]: −1.59 ± 3.63%
cardiac output, variation % [7]: 4.86 ± 2.88%
coronary artery resistance, variation % [7]: −3.99 ± 3.34 %
total peripheral resistance (TPR), variation % [7]: −2.75 ± 3.55%
coronary artery resistance, x ± s [8]: 0.273 ± 0.032 Kpa/ml/min
myocardial oxygen consumption, x ± s [8]: 214.1 ± 6.66 mL/min.100 g^−1
total peripheral resistance (TPR), x ± s [8]: 891.8 ± 93.4 dyn·s·cm^−5
cardiac output, x ± s [9]: 1.13 ± 0.13 L/min
coronary artery resistance, x ± s [9]: 0.286 Kpa/ml/min
myocardial oxygen consumption, x ± s [9]: 211.0 ± 5.44 mL/min.100 g^−1
myocardial oxygen uptake, x ± s [9]: 78.7%
total peripheral resistance (TPR), x ± s [9]: 890.5 ± 82.2 dyn·s·cm^−5
cardiac output, x ± s [10]: 1.14 ± 0.14 L/min
coronary artery resistance, x ± s [10]: 0.278 ± 0.028 Kpa/ml/min
total peripheral resistance (TPR), x ± s [10]: 891.3 ± 78.1 dyn·s·cm^−5
cardiac output, x ± s [11]: 1.16 ± 0.13 L/min
coronary artery resistance, x ± s [11]: 0.274 ± 0.035 Kpa/ml/min
myocardial oxygen consumption, x ± s [11]: 208.0 ± 5.3 mL/min.100 g^−1
myocardial oxygen uptake, x ± s [11]: 71.3 ± 5.28%
total peripheral resistance (TPR), x ± s [11]: 903.4 ± 76.9 dyn·s·cm^−5
cardiac output, x ± s [12]: 1.18 ± 0.14 L/min
coronary artery resistance, x ± s [12]: 0.267 ± 0.037 Kpa/ml/min
myocardial oxygen consumption, x ± s [12]: 210.3 ± 6.32 mL/min.100 g^−1
myocardial oxygen uptake, x ± s [12]: 71.7 ± 5.71 %
total peripheral resistance (TPR), x ± s [12]: 878.7 ± 90.9 dyn·s·cm^−5
cardiac output, x ± s [13]: 1.18 ± 0.15 L/min
coronary artery resistance, x ± s [13]: 0.270 ± 0.040 Kpa/ml/min
myocardial oxygen consumption, x ± s [13]: 209.1 ± 6.38 mL/min.100 g^−1
myocardial oxygen uptake, x ± s [13]: 72.4 ± 5.51 %
total peripheral resistance (TPR), x ± s [13]: 872.9 ± 98.6 dyn·s·cm^−5
cardiac output, x ± s [14]: 1.15 ± 0.16 L/min
coronary artery resistance, x ± s [14]: 0.263 ± 0.038 Kpa/ml/min
total peripheral resistance (TPR), x ± s [14]: 863.7 ± 80.0 dyn·s·cm^−5
cardiac output, x ± s [15]: 1.08 ± 0.15 L/min
myocardial oxygen uptake, x ± s [15]: 80.0 ± 6.55%
cardiac output, variation % [9]: 4.60 ± 3.19%
coronary artery resistance, variation % [9]: 4.63%
myocardial oxygen consumption, variation % [9]: −1.45 ± 1.13%
myocardial oxygen uptake, variation % [9]: −1.46%
total peripheral resistance (TPR), variation % [9]: 0.02 ± 4.07%
cardiac output, variation % [10]: 5.74 ± 2.02 %
coronary artery resistance, variation % [10]: 1.79 ± 3.25%
total peripheral resistance (TPR), variation % [10]: 0.09 ± 2.25%
cardiac output, variation % [11]: 7.43 ± 3.40 %
coronary artery resistance, variation % [11]: 0.21 ± 1.44%
myocardial oxygen consumption, variation % [11]: −2.77 ± 3.75%
myocardial oxygen uptake, variation % [11]: −10.7 ± 4.01 %
total peripheral resistance (TPR), variation % [11]: 1.49 ± 3.81%
cardiac output, variation % [12]: 9.41 ± 4.82 %
coronary artery resistance, variation % [12]: −2.64 ± 2.78%
myocardial oxygen consumption, variation % [12]: −1.75 ± 3.51%
myocardial oxygen uptake, variation % [12]: −10.3 ± 5.25 %
total peripheral resistance (TPR), variation % [12]: −1.42 ± 3.68%
cardiac output, variation % [13]: 9.05 ± 2.24 %
coronary artery resistance, variation % [13]: −1.69 ± 4.78%
myocardial oxygen consumption, variation % [13]: −2.28 ± 3.5%
myocardial oxygen uptake, variation % [13]: −9.32 ± 3.22 %
total peripheral resistance (TPR), variation % [13]: −2.16 ± 2.50%
cardiac output, variation % [14]: 6.53 ± 2.43 %
coronary artery resistance, variation % [14]: −4.10 ± 5.44 %
total peripheral resistance (TPR), variation % [14]: −3.00 ± 4.04%

Source: US20080176810A1, “Use of 3, 4', 5-Trihydroxy-Stilbene-3-Beta-D-glucoside in Prepartion of Medicines For Treating and/or Preventing Ischemic Heart Disease” (SHENZHEN NEPTUNUS PHARMACEUTICAL CO., LTD., priority 2004, published 2008)
